A value given as a limit tells only on which side of the number the result lay.

We go through eleven compounds from patent US7482344B2, “Tricyclic steroid hormone nuclear receptor modulators” (Eli Lilly and Company, priority 2003, dated 2009).

This test deals with T1, human GR (glucocorticoid receptor) (Homo sapiens, UniProt P04150).
T1 construct: expressed in transfected cells; host or cells: 293 cells
T1 sequence (P04150 1-777): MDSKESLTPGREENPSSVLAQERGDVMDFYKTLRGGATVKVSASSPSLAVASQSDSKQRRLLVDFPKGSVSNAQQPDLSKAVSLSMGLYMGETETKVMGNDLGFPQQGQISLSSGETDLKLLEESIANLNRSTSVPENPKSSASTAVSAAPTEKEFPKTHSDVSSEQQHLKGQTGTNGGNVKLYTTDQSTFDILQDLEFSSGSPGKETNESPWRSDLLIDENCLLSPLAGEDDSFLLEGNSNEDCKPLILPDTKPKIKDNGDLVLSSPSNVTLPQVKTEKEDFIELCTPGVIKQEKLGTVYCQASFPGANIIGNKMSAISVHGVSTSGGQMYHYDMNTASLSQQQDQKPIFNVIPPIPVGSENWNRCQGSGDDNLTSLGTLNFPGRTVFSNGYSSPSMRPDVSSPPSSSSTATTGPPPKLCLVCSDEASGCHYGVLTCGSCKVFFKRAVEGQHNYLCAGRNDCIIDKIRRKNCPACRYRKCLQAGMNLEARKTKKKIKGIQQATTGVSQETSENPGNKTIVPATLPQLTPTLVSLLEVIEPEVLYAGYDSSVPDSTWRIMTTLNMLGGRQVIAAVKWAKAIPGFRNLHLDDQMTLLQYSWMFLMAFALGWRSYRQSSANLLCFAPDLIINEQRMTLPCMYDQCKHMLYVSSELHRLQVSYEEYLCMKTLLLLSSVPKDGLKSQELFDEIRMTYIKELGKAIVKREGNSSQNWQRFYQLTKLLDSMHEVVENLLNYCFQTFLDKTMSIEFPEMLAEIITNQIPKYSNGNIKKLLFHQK
The test can be described thus: Alternative Binding Assay Protocol (Method 2), 293-GR lysate, 3H-dexamethasone competition. The note with it: 0.3 nM 3H-dexamethasone. Here is the method: Alternative Binding Assay Protocol for MR, GR, AR, and PR (Method 2):
Cell lysates from 293 cells overexpressing human GR (glucocorticoid receptor), AR (androgen receptor), MR (mineralocorticoid receptor) or PR (progesterone receptor) are used for competition binding assays to determine Ki values for test compounds. Briefly, competition binding assays are run in a buffer containing 20 mM Hepes, pH 7.6, 0.2 mM EDTA, 75 mM NaCl, 1.5 mM MgCl2, 20% glycerol, 20 mM sodium molybdate, 0.2 mM DTT, 20 ug/ml aprotinin and 20 ug/ml leupeptin, using either 0.3 nM ^3H-dexamethasone for GR binding, 0.36 nM ^3H-methyltrienolone for AR binding, 0.25 nM ^3H-aldosterone for MR binding, or 0.29 nM ^3H-methyltrienolone for PR binding, and either 20 ug 293-GR lysate, 22 ug 293-AR lysate, 20 ug 293-MR lysate or 40 ug 293-PR lysate per well. Competing compounds are added various concentrations in half-log increments. Non-specific binding is determined in the presence of 500 nM dexamethasone for GR binding, 500 nM aldosterone for MR binding, or 500 nM methyltrienolone for AR and PR binding. The binding reaction (140 μl) is incubated for overnight at 4° C. then 70 μl of cold charcoal-dextran buffer (containing per 50 ml of assay buffer, 0.75 g of charcoal and 0.25 g of dextran) is added to each reaction. Plates are mixed 8 minutes on an orbital shaker at 4° C. Plates are then centrifuged at 3,000 rpm at 4° C. for 10 minutes. An aliquot of 120 μl of the mix is transferred to another 96-well plate and 175 μl of Wallac Optiphase “Hisafe 3” scintillation fluid is added to each well. Plates are sealed and shaken vigorously on an orbital shaker. After an incubation of 2 hrs, plates are read in a Wallac Microbeta counter. The data is used to calculate an IC50 and % Inhibition at 10 μM. The Kd for ^3H-dexamethasone for GR binding, ^3H-methyltrienolone for AR binding, ^3H-aldosterone for MR binding, or ^3H-methyltrienolone for PR binding, is determined by saturation binding. The IC50 values for compounds are converted to Ki using Cheng-Prusoff equation and the Kd determined by saturation binding assay.
For orientation: Ki means a dissociation constant, usually derived from enzyme kinetics or from competition with a known ligand. `O=c1[nH]c2cc(C=C3c4ccccc4Sc4ccccc43)ccc2s1` [Example 12]: the Ki is below 500 nM.

`CC(=C1c2ccccc2Sc2ccccc21)c1cccc(NS(C)(=O)=O)c1` [Example 4, 9-[1-(3-methylsulfonoylaminophenyl)ethylene] thioxanthine] yielded a Ki below 500 nM.

As to `Oc1ccccc1C=C1c2ccccc2Sc2ccccc21` [Example 15], the Ki is below 500 nM.

`CC(=C1c2ccccc2Sc2ccccc21)c1cccc(N)c1` [Example 6] had a Ki below 500 nM.

In the case of `O=c1[nH]c2cc(C=C3c4ccccc4Sc4ccccc43)ccc2o1` [Example 11], the Ki is below 500 nM.

Regarding `O=c1[nH]c2ccc(C=C3c4ccccc4Sc4ccccc43)cc2[nH]1` [Example 10], the Ki is below 10000 nM.

Compound `O=c1[nH]c2cc(C=C3c4ccccc4Sc4ccccc43)ccc2n1CCN1CCOCC1` [Example 13] yielded a Ki below 1000 nM.

In turn, `CN1CCN(CCn2c(=O)[nH]c3cc(C=C4c5ccccc5Sc5ccccc54)ccc32)CC1` [Example 14] returned a Ki below 10000 nM.

For `CS(=O)(=O)Nc1cccc(C=C2c3ccccc3Sc3ccccc32)c1` [Example 8], the Ki was below 500 nM.

Take `O=c1[nH]c2ccc(C=C3c4ccc(F)cc4Sc4cc(F)ccc43)cc2[nH]1` [Example 5, 5-(3,6-Difluoro-thioxanthen-9-ylidenemethyl)-1,3-dihydro-benzoimidazol-2-one]: the Ki is below 1000 nM.

Regarding `Nc1cccc(C=C2c3ccccc3Sc3ccccc32)c1` [Example 9], the Ki is below 1000 nM.
